Values after ≈ are worked out from the molar mass of the structure shown. Where two headings read alike, the source gives them in different places.
Columns and labels:
[1] = system: E. coli ATCC 10536; experiment: Antibacterial activity (MIC), standard agar dilution streak method; format: cell-based, Escherichia coli; details: Escherichia coli, ATCC10536, read-out: Minimum inhibitory concentration
Method: (§1) The antibacterial activities of the compounds of the present invention were assayed by the standard agar dilution streak method against Gram-positive and Gram-negative bacteria [Chemotherapy, 22, 1126 (1974)].

[2] = system: S. aureus Terajima; experiment: as above; format: cell-based, Staphylococcus aureus; details: Staphylococcus aureus; S. aureus Terajima; read-out: Minimum inhibitory concentration
Method: as §1

[3] = system: Alcaligenes faecalis 0104002; experiment: as above; format: cell-based; details: read-out: Minimum inhibitory concentration
Method: as §1

[4] = system: Enterobacter cloacae IID 977; experiment: as above; format: cell-based; details: read-out: Minimum inhibitory concentration
Method: as §1

[5] = system: Pseudomonas aeruginosa V-1; experiment: as above; format: cell-based; details: read-out: Minimum inhibitory concentration
Method: as §1

[6] = system: Yersinia enterocolitica IID 981; experiment: as above; format: cell-based; details: read-out: Minimum inhibitory concentration
Method: as §1

[7] = system: Proteus vulgaris 3167; experiment: as above; format: cell-based; details: read-out: Minimum inhibitory concentration
Method: as §1

[8] = system: Bacillus subtilis PCI 219; experiment: as above; format: cell-based; details: PCI219; Bacillus subtilis PCI 219; read-out: Minimum inhibitory concentration
Method: as §1

[9] = system: P. mirabilis IID 994; experiment: as above; format: cell-based; details: Proteus mirabilis, IID994; P. mirabilis IID 994; read-out: Minimum inhibitory concentration
Method: as §1

[10] = system: Klebsiella pneumoniae IFO 3512; experiment: as above; format: cell-based; details: read-out: Minimum inhibitory concentration
Method: as §1

[11] = system: S. epidermidis IID 866; experiment: as above; format: cell-based; details: Staphylococcus epidermidis, IID866, read-out: Minimum inhibitory concentration
Method: as §1

[12] = system: P. morganii IID 602; experiment: as above; format: cell-based; details: Morganella morganii, IID602, P. morganii IID 602; read-out: Minimum inhibitory concentration
Method: as §1

[13] = system: Serratia marcescens IID 618; experiment: as above; format: cell-based; details: read-out: Minimum inhibitory concentration
Method: as §1

[14] = system: Staphylococcus aureus 209 p; experiment: as above; format: cell-based; details: Staphylococcus aureus 209 p; read-out: Minimum inhibitory concentration
Method: as §1

[15] = system: Citrobacter freundii IID 976; experiment: as above; format: cell-based; details: read-out: Minimum inhibitory concentration
Method: as §1

[16] = system: Escherichia coli NIHJ JC-2; experiment: as above; format: cell-based; details: read-out: Minimum inhibitory concentration
Method: as §1

[17] = system: Acinetobacter anitratus IID 876; experiment: as above; format: cell-based; details: Acinetobacter calcoaceticus, IID876, read-out: Minimum inhibitory concentration
Method: as §1

[18] = system: P. aeruginosa IFO 12689; experiment: as above; format: cell-based, Pseudomonas aeruginosa; details: Pseudomonas aeruginosa, IFO12689, P. aeruginosa IFO 12689; read-out: Minimum inhibitory concentration
Method: as §1

[19] = system: Shigella sonnei IID 969; experiment: microbe, parasite or virus in culture; format: cell-based; details: Shigella sonnei, IID969, Shigella sonnei IID 969; read-out: Minimum inhibitory concentration
Method: as §1

[20] = system: Salmonella enteritidis IID 604; experiment: Antibacterial activity (MIC), standard agar dilution streak method; format: cell-based; details: Salmonella enterica; Salmonella enteritidis IID 604; read-out: Minimum inhibitory concentration
Method: as §1

[21] = Alcaligenes faecalis, 0104002, Alcaligenes faecalis 0104002
[22] = Enterobacter cloacae, IID977, Enterobacter cloacae IID 977
[23] = Yersinia enterocolitica, IID981, Yersinia enterocolitica IID 981
[24] = Proteus vulgaris, 3167, Proteus vulgaris 3167
[25] = Klebsiella pneumoniae, IFO3512, Klebsiella pneumoniae IFO 3512
[26] = Serratia marcescens, IID618, Serratia marcescens IID 618
[27] = Citrobacter freundii, IID976, Citrobacter freundii IID 976
[28] = Escherichia coli, NIHJJC2, Escherichia coli NIHJ JC-2
[29] = IID977, Enterobacter cloacae IID 977
[30] = IID981, Yersinia enterocolitica IID 981
[31] = IFO3512, Klebsiella pneumoniae IFO 3512
[32] = IID618, Serratia marcescens IID 618
[33] = IID976, Citrobacter freundii IID 976

Row | Structure (SMILES) | MIC [1] [µg/mL] | MIC [2] [µg/mL] | MIC [3, 21] [µg/mL] | MIC [4, 22] [µg/mL] | MIC ([5]; V1, Pseudomonas aeruginosa V-1) [µg/mL] | MIC [6, 23] [µg/mL] | MIC [7, 24] [µg/mL] | MIC [8] [µg/mL] | MIC [9] [µg/mL] | MIC [10, 25] [µg/mL] | MIC [11] [µg/mL] | MIC [12] [µg/mL] | MIC [13, 26] [µg/mL] | MIC [14] [µg/mL] | MIC [15, 27] [µg/mL] | MIC [17] [µg/mL] | MIC [18] [µg/mL] | MIC [19] [µg/mL] | MIC [20] [µg/mL] | MIC [4, 29] [µg/mL] | other results
1 | CN1CCN(c2c(F)cc3c(=O)c(C(=O)O)cn(CCF)c3c2F)CC1.Cl [Example 5, 6,8-Difluoro-1-(2-fluoroethyl)-1,4-dihydro-7-(4-methyl-1-piperazinyl)-4-oxoquinoline-3-carboxylic acid hydrochloride] | 0.1 | 0.78 | 0.78 | 0.1 | 3.13 | 0.1 | ≤ 0.05 | 0.1 | ≤ 0.05 | ≤ 0.05 | 0.78 | 0.1 | 0.1 | 0.78 | ≤ 0.05 | 0.39 | 3.13 | ≤ 0.05 |  |  | MIC [16, 28]: ≤ 0.05 µg/mL
2 | CCn1cc(C(=O)O)c(=O)c2cc(F)c(N3CCOCC3)c(F)c21 [Example 12, 1-Ethyl-6,8-difluoro-1,4-dihydro-7-(4-morpholinyl)4-oxoquinoline-3-carboxylic acid] | 0.39 (≈ 1.15 µM) | 0.39 (≈ 1.15 µM) | 1.56 (≈ 4.61 µM) | 1.56 (≈ 4.61 µM) | 12.5 (≈ 36.9 µM) | 0.39 (≈ 1.15 µM) | ≤ 0.05 | ≤ 0.05 | 0.2 (≈ 0.591 µM) | ≤ 0.05 | 0.39 (≈ 1.15 µM) | 0.78 (≈ 2.31 µM) | 1.56 (≈ 4.61 µM) | 0.2 (≈ 0.591 µM) | 0.78 (≈ 2.31 µM) | 1.56 (≈ 4.61 µM) | 12.5 (≈ 36.9 µM) | 0.2 (≈ 0.591 µM) | 1.56 (≈ 4.61 µM) |  | MIC [16, 28]: 0.2 µg/mL (≈ 0.591 µM)
3 | CCn1cc(C(=O)O)c(=O)c2cc(F)c(N3CCCC(O)C3)c(F)c21 (centres unmarked) [Example 10, 1-Ethyl-6,8-difluoro-1,4-dihydro-7-(3-hydroxy-1-piperidinyl)-4-oxoquinoline-3-carboxylic acid] | 0.78 (≈ 2.21 µM) |  | 3.13 (≈ 8.88 µM) |  | 25 (≈ 71 µM) | 1.56 (≈ 4.43 µM) | 0.1 (≈ 0.284 µM) | ≤ 0.05 |  | 0.1 (≈ 0.284 µM) | 0.78 (≈ 2.21 µM) | 1.56 (≈ 4.43 µM) | 3.13 (≈ 8.88 µM) | 0.2 (≈ 0.568 µM) | 1.56 (≈ 4.43 µM) | 1.56 (≈ 4.43 µM) | 25 (≈ 71 µM) | 0.78 (≈ 2.21 µM) | 6.25 (≈ 17.7 µM) | 6.25 (≈ 17.7 µM) | 
4 | C=CCn1cc(C(=O)O)c(=O)c2cc(F)c(N3CCNCC3)c(F)c21.Cl [Example 3, 1-Allyl-6,8-difluoro-1,4-dihydro-4-oxo-7-(1-piperazinyl)quinoline-3-carboxylic acid hydrochloride] | 0.39 | 3.13 |  |  |  |  |  | 0.39 | 0.2 |  | 3.13 | 0.39 |  | 3.13 |  | 3.13 | 6.25 | 0.1 | 0.2 | 0.78 | MIC ([3]; Alcaligenes faecalis 0104002): 3.13 µg/mL; MIC ([5]; Pseudomonas aeruginosa, V1, Pseudomonas aeruginosa V-1): 12.5 µg/mL; MIC [6, 30]: 0.39 µg/mL; MIC ([7]; Proteus vulgaris 3167): 0.1 µg/mL; MIC [10, 31]: 0.1 µg/mL; MIC [13, 32]: 0.39 µg/mL; MIC [15, 33]: 0.2 µg/mL
5 | Cl.O=C(O)c1cn(CCO)c2c(F)c(N3CCNCC3)c(F)cc2c1=O [Example 14, 6,8-Difluoro-1,4-dihydro-1-(2-hydroxyethyl)-4-oxo-7-(1-piperazinyl)-quinoline-3-carboxylic acid hydrochloride] | 0.39 | 25 |  |  |  |  |  | 3.13 |  |  | 12.5 |  |  | 12.5 |  | 25 | 12.5 | 0.2 | 0.39 | 0.39 | MIC ([3]; Alcaligenes faecalis 0104002): 100 µg/mL; MIC [6, 30]: 0.39 µg/mL; MIC ([7]; Proteus vulgaris 3167): 0.39 µg/mL; MIC [10, 31]: 0.39 µg/mL; MIC [13, 32]: 6.25 µg/mL; MIC [15, 33]: 0.2 µg/mL; MIC ([16]; NIHJJC2, Escherichia coli NIHJ JC-2): 0.39 µg/mL

— patent US4398029A, “Quinoline carboxylic acid derivatives and process for the preparation” (Kyorin Seiyaku Kabushiki Kaisha, priority 1981, dated 1983)
